≈ marks a conversion by molar mass, not a printed value. Read-outs that look alike come from different tables or passages of the source.
Experiments:
[1] = tested on: E. faecalis GC 2265; test: MIC, broth microdilution; conditions: Enterococcus faecalis
[2] = tested on: E. coli GC 2203; test: MIC, broth microdilution; conditions: Escherichia coli
[3] = tested on: E. coli GC 3226; test: MIC, broth microdilution; conditions: Escherichia coli
[4] = tested on: Staph. aureus Smith; test: In vivo activity (oral, iv; ED50) against Staph. aureus Smith in mice
Protocol: Representative examples of compounds of Formula I were tested for the oral efficacy using S. aureus Smith in mice.

[5] = tested on: E. coli GC 2232; test: MIC, broth microdilution; conditions: Escherichia coli
[6] = tested on: S. epidermidis GC 4935; test: MIC, broth microdilution; conditions: Staphylococcus epidermidis
Protocol: (§1) Antimicrobial susceptibility testing. The in vitro activities of the antibiotics are determined by the broth microdilution method as recommended by the National Committee for Clinical Laboratory Standards (NCCLS) (1). Mueller-Hinton II broth (MHBII)(BBL Cockeysville, Md.) is the medium employed in the testing procedures. Microtiter plates containing serial dilutions of each antimicrobial agent are inoculated with each organism to yield the appropriate density (10^5 CFU/ml) in a 100 μl final volume. The plates are incubated for 18-22 hours at 35° C. in ambient air.
Representative compounds were first incubated in mouse serum for an hour prior to the in vitro testing against a panel of selected gram-positive and gram-negative bacteria strains. All compounds were also pre-incubated in water for an hour prior to testing as control. Representative compounds of Formula I were incubated in human serum prior to MIC determination.

[7] = tested on: S. aureus GC 1131; test: MIC, broth microdilution; conditions: Staphylococcus aureus
[8] = tested on: S. pyogenes GC 4563; test: MIC, broth microdilution; conditions: Streptococcus pyogenes
Protocol: Antimicrobial susceptibility testing. The in vitro activities of the antibiotics are determined by the broth microdilution method as recommended by the National Committee for Clinical Laboratory Standards (NCCLS) (1). Mueller-Hinton II broth (MHBII)(BBL Cockeysville, Md.) is the medium employed in the testing procedures. Microtiter plates containing serial dilutions of each antimicrobial agent are inoculated with each organism to yield the appropriate density (10^5 CFU/ml) in a 100 μl final volume. The plates are incubated for 18-22 hours at 35° C. in ambient air. […] Standard Pharmacological Test Procedures
Presented in Tables I-XIII are representative compounds of Formula I which were evaluated against a panel of 40 selected gram-positive and gram-negative bacteria strains by pre-incubation in water, mouse serum or human serum. Representative compounds were first incubated in mouse serum for an hour prior to the in vitro testing against a panel of selected gram-positive and gram-negative bacteria strains. All compounds were also pre-incubated in water for an hour prior to testing as control. Representative compounds of Formula I were incubated in human serum prior to MIC determination.

[9] = tested on: S. pneumoniae+ GC 4465; test: MIC, broth microdilution; conditions: Streptococcus pneumoniae
Protocol: as §1
Representative compounds were first incubated in mouse serum for an hour prior to the in vitro testing against a panel of selected gram-positive and gram-negative bacteria strains. All compounds were also pre-incubated in water for an hour prior to testing as control.

[10] = tested on: E. coli GC 2271; test: MIC, broth microdilution; conditions: Escherichia coli
[11] = tested on: E. faecalis GC 2267; test: MIC, broth microdilution; conditions: Enterococcus faecalis
[12] = tested on: S. pneumoniae* GC 4465; test: MIC, broth microdilution; conditions: Streptococcus pneumoniae
[13] = tested on: E. coli GC 2236; test: MIC, broth microdilution; conditions: Escherichia coli
[14] = tested on: E. coli GC 2272; test: MIC, broth microdilution; conditions: Escherichia coli
[15] = tested on: P. aeruginosa GC 2214; test: MIC, broth microdilution; conditions: Pseudomonas aeruginosa
[16] = tested on: S. aureus GC 6335; test: MIC, broth microdilution; conditions: Staphylococcus aureus
[17] = tested on: E. coli GC 4559; test: MIC, broth microdilution; conditions: Escherichia coli
[18] = tested on: S. agalactiae GC 4564; test: MIC, broth microdilution; conditions: Streptococcus agalactiae
[19] = tested on: E. coli GC 2234; test: MIC, broth microdilution; conditions: Escherichia coli
[20] = tested on: E. faecalis GC 4555; test: MIC, broth microdilution; conditions: Enterococcus faecalis
[21] = read-out: MINIMAL INHIBITORY CONCENTRATION MIC, Human Serum
[22] = read-out: MINIMAL INHIBITORY CONCENTRATION MIC, Mouse Serum
[23] = read-out: MINIMAL INHIBITORY CONCENTRATION MIC, Water

CC(C)CC(=O)OCOC(=O)N(CC(=O)Nc1cc(N(C)C)c2c(c1O)C(=O)C1=C(O)[C@]3(O)C(=O)C(C(N)=O)=C(O)[C@@H](N(C)C)[C@@H]3C[C@@H]1C2)C(C)(C)C [Example 53, ({[(2-{[(5aR,6aS,7S,10aS)-9-(aminocarbonyl)-4,7-bis(dimethylamino)-1,8,10a,11-tetrahydroxy-10,12-dioxo-5,5a,6,6a,7,10,10a,12-octahydrotetracen-2-yl]amino}-2-oxoethyl)(tert-butyl)amino]carbonyl}oxy)methyl 3-methylbutanoate]
MIC ([1]; GC2265, read-out: MINIMAL INHIBITORY CONCENTRATION MIC, Human Serum): 0.5 µg/mL (≈ 0.672 µM) | MIC ([1]; GC2265, read-out: MINIMAL INHIBITORY CONCENTRATION MIC, Mouse Serum): 1 µg/mL (≈ 1.34 µM) | MIC ([1]; GC2265, read-out: MINIMAL INHIBITORY CONCENTRATION MIC, Water): 4 µg/mL (≈ 5.38 µM) | MIC ([2]; GC2203, read-out: MINIMAL INHIBITORY CONCENTRATION MIC, Human Serum): 16 µg/mL (≈ 21.5 µM) | MIC ([2]; GC2203, read-out: MINIMAL INHIBITORY CONCENTRATION MIC, Mouse Serum): 1 µg/mL (≈ 1.34 µM) | MIC ([2]; GC2203, read-out: MINIMAL INHIBITORY CONCENTRATION MIC, Water): 32 µg/mL (≈ 43 µM) | MIC ([3]; GC3226, read-out: MINIMAL INHIBITORY CONCENTRATION MIC, Human Serum): 16 µg/mL (≈ 21.5 µM) | MIC ([3]; GC3226, read-out: MINIMAL INHIBITORY CONCENTRATION MIC, Mouse Serum): 1 µg/mL (≈ 1.34 µM) | MIC ([3]; GC3226, read-out: MINIMAL INHIBITORY CONCENTRATION MIC, Water): 32 µg/mL (≈ 43 µM) | ED50 ([4]; Staphylococcus aureus, in Mus musculus, iv, read-out: ED50 SIV (Staph aureus Smith)): 0.73 mg/kg | ED50 ([4]; Staphylococcus aureus, in Mus musculus, po, read-out: ED50 SOD (Staph aureus Smith)): 5.08 mg/kg | ED50 ([4]; Staphylococcus aureus, in Mus musculus, po, read-out: ED50 Staph Smith SOD): 5.08 mg/kg | ED50 ([4]; iv, read-out: ED50 Staph Smith SIV): 0.73 mg/kg | MIC ([5]; GC2232, read-out: MINIMAL INHIBITORY CONCENTRATION MIC, Human Serum): 8 µg/mL (≈ 10.8 µM) | MIC ([5]; GC2232, read-out: MINIMAL INHIBITORY CONCENTRATION MIC, Mouse Serum): 0.5 µg/mL (≈ 0.672 µM) | MIC ([5]; GC2232, read-out: MINIMAL INHIBITORY CONCENTRATION MIC, Water): 32 µg/mL (≈ 43 µM) | MIC ([6]; GC4935, read-out: MINIMAL INHIBITORY CONCENTRATION MIC, Human Serum): 2 µg/mL (≈ 2.69 µM) | MIC ([6]; GC4935, read-out: MINIMAL INHIBITORY CONCENTRATION MIC, Mouse Serum): 1 µg/mL (≈ 1.34 µM) | MIC ([6]; GC4935, read-out: MINIMAL INHIBITORY CONCENTRATION MIC, Water): 2 µg/mL (≈ 2.69 µM) | MIC ([7]; GC1131, read-out: MINIMAL INHIBITORY CONCENTRATION MIC, Human Serum): 1 µg/mL (≈ 1.34 µM) | MIC ([7]; GC1131, read-out: MINIMAL INHIBITORY CONCENTRATION MIC, Mouse Serum): 1 µg/mL (≈ 1.34 µM) | MIC ([7]; GC1131, read-out: MINIMAL INHIBITORY CONCENTRATION MIC, Water): 1 µg/mL (≈ 1.34 µM) | MIC ([8]; GC4563, read-out: MINIMAL INHIBITORY CONCENTRATION MIC, Human Serum): 0.25 µg/mL (≈ 0.336 µM) | MIC ([8]; GC4563, read-out: MINIMAL INHIBITORY CONCENTRATION MIC, Mouse Serum): 0.12 µg/mL (≈ 0.161 µM) | MIC ([8]; GC4563, read-out: MINIMAL INHIBITORY CONCENTRATION MIC, Water): 0.25 µg/mL (≈ 0.336 µM) | MIC [9, 21]: 1 µg/mL (≈ 1.34 µM) | MIC [9, 22]: 2 µg/mL (≈ 2.69 µM) | MIC [9, 23]: 2 µg/mL (≈ 2.69 µM) | MIC ([10]; GC2271, read-out: MINIMAL INHIBITORY CONCENTRATION MIC, Human Serum): 8 µg/mL (≈ 10.8 µM) | MIC ([10]; GC2271, read-out: MINIMAL INHIBITORY CONCENTRATION MIC, Mouse Serum): 0.5 µg/mL (≈ 0.672 µM) | MIC ([10]; GC2271, read-out: MINIMAL INHIBITORY CONCENTRATION MIC, Water): 16 µg/mL (≈ 21.5 µM) | MIC ([11]; GC2267, read-out: MINIMAL INHIBITORY CONCENTRATION MIC, Human Serum): 2 µg/mL (≈ 2.69 µM) | MIC ([11]; GC2267, read-out: MINIMAL INHIBITORY CONCENTRATION MIC, Mouse Serum): 0.5 µg/mL (≈ 0.672 µM) | MIC ([11]; GC2267, read-out: MINIMAL INHIBITORY CONCENTRATION MIC, Water): 4 µg/mL (≈ 5.38 µM) | MIC [12, 21]: 0.25 µg/mL (≈ 0.336 µM) | MIC [12, 22]: 0.12 µg/mL (≈ 0.161 µM) | MIC [12, 23]: 0.12 µg/mL (≈ 0.161 µM) | MIC ([13]; GC2236, read-out: MINIMAL INHIBITORY CONCENTRATION MIC, Human Serum): 16 µg/mL (≈ 21.5 µM) | MIC ([13]; GC2236, read-out: MINIMAL INHIBITORY CONCENTRATION MIC, Mouse Serum): 1 µg/mL (≈ 1.34 µM) | MIC ([13]; GC2236, read-out: MINIMAL INHIBITORY CONCENTRATION MIC, Water): 32 µg/mL (≈ 43 µM) | MIC ([14]; GC2272, read-out: MINIMAL INHIBITORY CONCENTRATION MIC, Human Serum): 8 µg/mL (≈ 10.8 µM) | MIC ([14]; GC2272, read-out: MINIMAL INHIBITORY CONCENTRATION MIC, Mouse Serum): 0.25 µg/mL (≈ 0.336 µM) | MIC ([14]; GC2272, read-out: MINIMAL INHIBITORY CONCENTRATION MIC, Water): 16 µg/mL (≈ 21.5 µM) | MIC ([15]; GC2214, read-out: MINIMAL INHIBITORY CONCENTRATION MIC, Human Serum): > 64 µg/mL | MIC ([15]; GC2214, read-out: MINIMAL INHIBITORY CONCENTRATION MIC, Mouse Serum): 64 µg/mL (≈ 86 µM) | MIC ([15]; GC2214, read-out: MINIMAL INHIBITORY CONCENTRATION MIC, Water): > 64 µg/mL | MIC ([16]; GC6335, read-out: MINIMAL INHIBITORY CONCENTRATION MIC, Human Serum): 0.5 µg/mL (≈ 0.672 µM) | MIC ([16]; GC6335, read-out: MINIMAL INHIBITORY CONCENTRATION MIC, Mouse Serum): 0.5 µg/mL (≈ 0.672 µM) | MIC ([16]; GC6335, read-out: MINIMAL INHIBITORY CONCENTRATION MIC, Water): 1 µg/mL (≈ 1.34 µM) | MIC ([17]; GC4559, read-out: MINIMAL INHIBITORY CONCENTRATION MIC, Human Serum): 16 µg/mL (≈ 21.5 µM) | MIC ([17]; GC4559, read-out: MINIMAL INHIBITORY CONCENTRATION MIC, Mouse Serum): 1 µg/mL (≈ 1.34 µM) | MIC ([17]; GC4559, read-out: MINIMAL INHIBITORY CONCENTRATION MIC, Water): 32 µg/mL (≈ 43 µM) | MIC ([18]; GC4564, read-out: MINIMAL INHIBITORY CONCENTRATION MIC, Human Serum): 0.5 µg/mL (≈ 0.672 µM) | MIC ([18]; GC4564, read-out: MINIMAL INHIBITORY CONCENTRATION MIC, Mouse Serum): < 0.06 µg/mL | MIC ([18]; GC4564, read-out: MINIMAL INHIBITORY CONCENTRATION MIC, Water): 0.5 µg/mL (≈ 0.672 µM) | MIC ([19]; GC2234, read-out: MINIMAL INHIBITORY CONCENTRATION MIC, Human Serum): 8 µg/mL (≈ 10.8 µM) | MIC ([19]; GC2234, read-out: MINIMAL INHIBITORY CONCENTRATION MIC, Mouse Serum): 0.5 µg/mL (≈ 0.672 µM) | MIC ([19]; GC2234, read-out: MINIMAL INHIBITORY CONCENTRATION MIC, Water): 16 µg/mL (≈ 21.5 µM) | MIC ([20]; GC4555, read-out: MINIMAL INHIBITORY CONCENTRATION MIC, Human Serum): 2 µg/mL (≈ 2.69 µM) | MIC ([20]; GC4555, read-out: MINIMAL INHIBITORY CONCENTRATION MIC, Mouse Serum): 0.5 µg/mL (≈ 0.672 µM) | MIC ([20]; GC4555, read-out: MINIMAL INHIBITORY CONCENTRATION MIC, Water): 2 µg/mL (≈ 2.69 µM)
